# From US20260345555A1, “Compositions and Methods for Protecting Salivary Glands from Off-Target Radiation Damage” (University of Rochester, priority 2022, published 2026)
# Columns and labels:
# [1] = test system: Reduced glutathione in salivary gland cell clusters (SGm); assay: Glutathione assay in salivary gland tissue chip, 4 days post-radiation (15 Gy); also first screen of Selleck library at 100 μM; type: cell-based, mouse; details: for protection against glutathione level changes resulting from radiation: 50 μM; on Glutathione (radioprotection): key: +: radioprotection; ~: partial radioprotection; —: no radioprotection
# Procedure, shortened: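 Mouse submandibular gland cell clusters (20–100 μm) in PEG hydrogel on microbubble chips, cultured 4 days to form SGm, then dosed 30 min before and during 15 Gy irradiation and washed out 30 min after. Glutathione measured 4 days post-radiation; library compounds screened at 100 μM, hits matching 0 Gy levels.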
# [2] = test system: senescence-associated β-galactosidase in salivary gland cell clusters (SGm); assay: Cellular senescence assay (SPiDER-βGal) in salivary gland tissue chip, 5 days post-radiation (15 Gy); also second screen of library hits at 100 μM; type: cell-based, mouse; on Senescence (radioprotection): key: +: radioprotection; ~: partial radioprotection; —: no radioprotection
# Source text: The chip platform consists of an array of near-spherical microbubble (MB) cavities formed in poly(dimethylsiloxane) (PDMS). Each chip, containing ~50 MBs, affixed within wells of a 96-well plate (FIG. 1C). Primary salivary gland cell clusters (FIG. 1A), suspended in a poly(ethylene glycol) (PEG) hydrogel precursor and MMP-degradable peptide crosslinker solution together with the photoinitiator LAP, were applied to the chip allowing the clusters to deposit into the MBs (FIG. 1D). In situ polymerization of the hydrogel was achieved using long-wave, low intensity UV light. Over time, the cell clusters aggregate and proliferate to form SGm (FIG. 1C).
# For senescence, a protocol similar to the glutathione assay was followed to determine the optimal time point post-radiation for detecting a change in senescence between 0 Gy and 15 Gy, as measured by senescence-associated β-galactosidase activity.
# The glutathione and senescence assays were used to screen a library of FDA-approved drugs (Selleck Chemicals) at 100 μM. Drugs were first screened using the glutathione assay according to the timeline depicted in FIG. 2A. […] Hits with the glutathione assay were then tested with the senescence assay and considered a “double hit” if senescence levels were statistically similar to levels at 0 Gy (FIG. 4, black circles).
# Mice were euthanized and the submandibular glands (SMG) were removed and chopped with a razor blade for 5 min. […] Cells were centrifuged, then resuspended in HBSS with 15 mM HEPES and passed through 100 μm and 20 μm mesh filters to isolate clusters between 20-100 μm. […] The isolated clusters were combined with hydrogel precursor solution and seeded in MB array-based chips as described below.
# The cell/gel precursor solution (25 μL for 48 well; 20 μL for 96 well) was pipetted onto the MB chips and incubated for 30 min, pipetting every 10 min to redisperse cells that had settled onto the surface of the chip.
# A cellular senescence assay for the chips was developed by adapting the Cellular Senescence Detection Kit—SPiDER-βGal (Dojindo Molecular Technologies, Inc. SG04). Bafilomycin A1 and SPiDER-βGal stock solutions were prepared in DMSO per manufacturer directions. The assay was performed by first incubating the chips with bafilomycin A1 (1:1000 dilution in media) for 1 hr at 37 °C. […] Chips were washed twice with media and imaged using a fluorescence microscope with a Texas Red filter (Excitation: 580 nm; Emission: 604 nm).
# For radioprotection experiments, SGm were cultured in MB-hydrogel chips for 4 days, then drugs were added to the chips 30 min prior to irradiation and washed out with media 30 min post-radiation treatment. […] The glutathione and senescence assays were performed at 4- and 5-days post-radiation. For assay validation experiments, at least 3 chips (N=3) were used for each drug, corresponding to >100 MBs (n>100); these values are listed in the figure description for each experiment. Mean, standard deviation, and statistics were calculated based on the number of MBs (n).
# For screening of the Selleck Chemicals compound library, the same treatment scheme was used, with drugs administered at 100 μM. One MB chip (N=1) was used per compound, with ~40-50 MBs per chip […]; statistics were calculated using the number of MBs (n) and compared to 0 Gy controls.
# For both the glutathione and cellular senescence assays, images were quantified in ImageJ.
# [3] = literature; cited from earlier work
# [4] = reason for exclusion from further testing; cited from earlier work
# [5] = in vivo; cited from earlier work
# [6] = in vivo; cited from earlier work; remark: listed apart in the source
# [7] = test system: lymphocyte cells; details: viability of lymphocytes as primary readout; cited from earlier work
# [8] = test system: salivary flow rate; details: swine; cited from earlier work
# [9] = test system: p53-dependent and independent apoptosis; details: cited from earlier work
# [10] = test system: COX-1; details: role: inhibitor; cited from earlier work
# [11] = test system: irradiated salivary glands; details: literature; cited from earlier work
structure (smiles),measurement,setting,value
"CC1=NN(c2ccccc2)C(=O)C1 [Edaravone, 3-methyl-1-phenyl-2-pyrazoline-5-one]",radioprotection using the glutathione assay,[1]; 0.1 mM,partial radioprotection
same,glutathione levels maintained,"[1]; 0.1 mM, 15 Gy",~ 43%
same,Glutathione (radioprotection),[1]; 1 mM,+
same,prevention of radiation-induced reduction of glutathione levels,"[1]; 1 mM, 15 Gy, 4 days post-radiation",showed protection
same,prevention of radiation-induced reduction of glutathione levels,"[1]; 4 mM, 15 Gy, 4 days post-radiation",not at 4 mM
same,Senescence (radioprotection),[2]; 100 μM,+
same,protection against radiation-induced senescence,[2]; 100 μM,protective
same,Senescence (radioprotection),[2]; 1 mM,+
same,Senescence (radioprotection),[2]; 4 mM,+
same,inhibition at 100 µM,"[2]; Mus musculus, light or radiation study, 120 h, 100 μM, versus untreated, irradiated controls, read-out: reduction in senescence",96%
same,inhibition at 1000 µM,"[2]; Mus musculus, light or radiation study, 120 h, 1 mM, versus untreated, irradiated controls, read-out: reduction in senescence",94%
same,inhibition at 4000 µM,"[2]; Mus musculus, light or radiation study, 120 h, 4 mM, versus untreated, irradiated controls, read-out: reduction in senescence",113%
same,radio-protective dose range,[3],100 to 1000 µM
COC(=O)[C@@H]1CC2=CC(=O)CC[C@]2(C)[C@@]23O[C@@H]2C[C@@]2(C)[C@@H](CC[C@@]24CCC(=O)O4)[C@H]13 [Eplerenone],solubility,[4],concerns with solubility
CCCSc1ccc2nc(NC(=O)OC)[nH]c2c1 [Albendazole (Albenza)],bioavailability,[5],poor bioavailability
NCCCNCCSP(=O)(O)O [amifostine],adverse effects,[6],"severe side effects, including nausea, vomiting, and hypotension"
CC(O)(P(=O)(O)O)P(=O)(O)O [Etidronate (Didronel)],Glutathione normalized mean intensity,"[1]; first screen of Selleck library at 100 μM, 15 Gy, 4 days post-radiation",0.9486
same,Senescence normalized mean intensity,"[2]; second screen of library hits at 100 μM, 15 Gy, 5 days post-radiation, only drugs nonsignificant compared to 0 Gy in the glutathione assay",0.992
same,bioavailability,[5],poor bioavailability
CCn1cc(C(=O)O)c(=O)c2cc(F)c(N3CCNCC3)cc21 [norfloxacin],hit in the drug screen,"[1]; glutathione assay first screen, 100 μM",not hits
same,radioprotection of lymphocytes,[7],radioprotectors
CO[C@H]1C[C@@H]2CC[C@@H](C)[C@@](O)(O2)C(=O)C(=O)N2CCCC[C@H]2C(=O)O[C@H]([C@H](C)C[C@@H]2CC[C@@H](O)[C@H](OC)C2)CC(=O)[C@H](C)/C=C(\C)[C@@H](O)[C@@H](OC)C(=O)[C@H](C)C[C@H](C)/C=C/C=C/C=C/1C [Rapamycin],protection against glutathione level changes resulting from radiation,[1]; 15 Gy,58%
same,Senescence (radioprotection),[2]; 50 μM,+
same,protection against radiation-induced senescence,"[2]; 50 μM, 15 Gy",complete protection
same,salivary flow rate post-radiation,[8],restore salivary flow rate post-radiation
COc1ccc(Cl)cc1C(=O)NCCc1ccc(S(=O)(=O)NC(=O)NC2CCCCC2)cc1 [Glyburide],radioprotection,[3],radioprotectors
O=C(O)c1ccc(/C=C/S(=O)(=O)Cc2ccc(Cl)cc2)cc1 [Ex-Rad],protection against glutathione level changes resulting from radiation,[1]; 15 Gy,no effect observed
same,radioprotection (senescence),"[2]; 50 μM, 15 Gy",45%
same,apoptosis,[9],reduce p53-dependent and independent apoptosis
COc1ccc2c(c1)c(CC(=O)O)c(C)n2C(=O)c1ccc(Cl)cc1 [Indomethacin],radioprotection in drug screen,[1]; 100 μM library screen,showed radioprotection
same,radioprotection in drug screen,[1]; concentrations lower than 100 μM,ineffective
same,COX-1 inhibition,[10],only blocks COX-1
same,mitigation of salivary gland damage,[11],mitigation of salivary gland damage
Cc1ccc(S(=O)(=O)NC(=O)NN2CC3CCCC3C2)cc1 (centres unmarked) [gliclazide],antioxidant activity,[3],antioxidant activity
same,radioprotection,[3],radioprotectors
